Test results reported in Sander's compilation of Henry's law constants (doi:10.1021/es00034a021).

Assay: Henry solubility constant Hcp at 298.15 K (mol/(m3 Pa))
Conditions: reference: Tse et al. (1992)

Compound | Henry solubility constant Hcp
ClCC(Cl)(Cl)Cl [1,1,1,2-tetrachloroethane] | 0.0045
CC(Cl)(Cl)Cl [1,1,1-trichloroethane] | 0.00063
ClC(Cl)C(Cl)Cl [1,1,2,2-tetrachloroethane] | 0.026
ClCC(Cl)Cl [1,1,2-trichloroethane] | 0.011
C=C(Cl)Cl [1,1-dichloroethene] | 0.00035
CC(Cl)CCl (stereo not drawn) [1,2-dichloropropane] | 0.0038
ClC(Cl)Br [bromodichloromethane] | 0.0048
ClC(Br)Br [dibromochloromethane] | 0.0093
BrCBr [dibromomethane] | 0.011
ClCCl [dichloromethane] | 0.0039
ClC(Cl)(Cl)Cl [tetrachloromethane] | 0.00038
BrC(Br)Br [tribromomethane] | 0.019
ClC=C(Cl)Cl [trichloroethene] | 0.0011
